No end group written: not given here.
What was measured:
[1] = system: C. albicans ATCC90028; assay: CO-ADD antifungal screening, MIC; type: cell-based, Candida albicans; conditions: yeast nitrogen base, 2.5 × 10^3 CFU/mL, 35 °C 24 h, OD530, n=2
[2] = system: human dermal microvascular endothelial cells (HDMEC); assay: HDMEC cytotoxicity assay; type: cell-based; conditions: concentration at 50% cytotoxicity
[3] = system: human embryonic kidney cells (HEK 293); assay: HEK 293 cytotoxicity assay; type: cell-based; conditions: concentration at 50% cytotoxicity, CO-ADD
[4] = system: S. aureus; conditions: ref [58]; cited from earlier work
[5] = system: E. coli; conditions: ref [58]; cited from earlier work

Row | Substance | MIC C. albicans ATCC90028* [1] [µM] | HDMEC (CC50) [2] [µM] | HEK293 (CC50) [3] [µM] | MIC against S. aureus [4] [µM] | MIC against E. coli [5] [µM]
1 | GLFDIVKKVVGALG-NH2 [Au2.2d2, reference compound] | >23 | 64 | – | – | –
2 | GLFDIVKKVVGALK-NH2 [compound 9] | >22 | 103 | – | – | –
3 | GLFDIVKKVVGLLK-NH2 [compound 8] | >21 | 28 | – | – | –
4 | GLFDIVKKVVKLLK-NH2 [compound 7] | >20 | 236 | – | – | –
5 | GLFKLLKKLLKLLK-NH2 [compound 2] | >20 | 2 | >19 | – | –
6 | KLLKLLKKLLGALG-NH2 [compound 16] | 11 | 8 | 7 | – | –
7 | KLLKLLKKLLKALG-NH2 [compound 17] | 20 | 4 | >20 | – | –
8 | KLLKLLKKLLKLLK-NH2 [Klk14, reference compound] | 9 | 3 | 10 | – | –
9 | KLLKLLKKLVGALG-NH2 [compound 15] | 21 | 25 | 12 | – | –
10 | KLLKLVKKVVGALG-NH2 [compound 13] | >22 | 533 | – | – | –
11 | WWKRWKKLRRIFLML | – | – | – | 4 | 4

From PMC7547863 (Biochemistry, 2020)
